The structures appear in SMILES notation.

In general, EC50 refers to the concentration at which the effect is half-maximal.

One assay concerns SARS-CoV-2 strain USA-WA1/2020. The assay can be described thus: microbe, parasite or virus in culture. The format is cell-based. The note with it: Severe acute respiratory syndrome coronavirus 2, HeLa-ACE2, 24 h, HeLa-ACE2 cells, SARS-CoV-2 infection, 24 h; given as bound; read-out: EC50, uM (Hela).
`CC(C)(C)NC(=O)C(=O)N1CC2(COC2)C[C@H]1C(=O)N[C@@H](C[C@@H]1CCNC1=O)C(=O)COC(F)(F)F` [Compound 515, (S)-6-(2-(tert-butylamino)-2-oxoacetyl)-N-((S)-3-oxo-1-((S)-2-oxopyrrolidin-3-yl)-4-(trifluoromethoxy)butan-2-yl)-2-oxa-6-azaspiro[3.4]octane-7-carboxamide]: the EC50 was > 1 µM.

Still in this assay, the particulars now being: Severe acute respiratory syndrome coronavirus 2, HeLa-ACE2, 24 h, HeLa-ACE2 cells, SARS-CoV-2 infection, 24 h; read-out: EC50, uM (Hela).
On to `CC(C)(C)C[C@H](NC(=O)C(=O)NCC(F)(F)F)C(=O)N[C@@H](C[C@@H]1CCNC1=O)C(=O)COC(F)(F)F` [Compound 505, N1-((S)-4,4-dimethyl-1-oxo-1-(((S)-3-oxo-1-((S)-2-oxopyrrolidin-3-yl)-4-(trifluoromethoxy)butan-2-yl)amino)pentan-2-yl)-N2-(2,2,2-trifluoroethyl)-oxalamide], for which the EC50 is < 0.05 µM. For the molecule `Cc1ccccc1NC(=O)C(=O)N[C@@H](CC1CC1)C(=O)N[C@@H](C[C@@H]1CCNC1=O)C(=O)COC(F)(F)F` [Compound 507, N1-((S)-3-cyclopropyl-1-oxo-1-(((S)-3-oxo-1-((S)-2-oxopyrrolidin-3-yl)-4-(trifluoromethoxy)butan-2-yl)amino)propan-2-yl)-N2-(o-tolyl)oxalamide], the EC50 was < 0.05 µM.

For the molecule `CC(C)(C)NC(=O)C(=O)N1CC2(CC1C(=O)N[C@@H](C[C@@H]1CCNC1=O)C(=O)COC(F)(F)F)CC(F)(F)C2` (stereo partly drawn) [Compound 508, 6-(2-(tert-butylamino)-2-oxoacetyl)-2,2-difluoro-N-((S)-3-oxo-1-((S)-2-oxopyrrolidin-3-yl)-4-(trifluoromethoxy)butan-2-yl)-6-azaspiro[3.4]octane-7-carboxamide], the half-maximal effective concentration (EC50) lay within 0.05 to 0.2 µM. On the same count and under the same terms, in the case of `O=C(N[C@@H](CC1CC1)C(=O)N[C@@H](C[C@@H]1CCNC1=O)C(=O)COC(F)(F)F)C(=O)NC12CC(F)(C1)C2` [Compound 509, N1-((S)-3-cyclopropyl-1-oxo-1-(((S)-3-oxo-1-((S)-2-oxopyrrolidin-3-yl)-4-(trifluoromethoxy)butan-2-yl)amino)propan-2-yl)-N2-(3-fluorobicyclo[1.1.1]-pentan-1-yl)oxalamide] it was < 0.05 µM; in that of `O=C(NC(CC1CCOCC1)C(=O)N[C@@H](C[C@@H]1CCNC1=O)C(=O)COC(F)(F)F)C(=O)NC12CC(F)(C1)C2` (stereo partly drawn) [Compound 510, N1-(3-fluorobicyclo-[1.1.1]pentan-1-yl)-N2-(1-oxo-1-(((S)-3-oxo-1-((S)-2-oxopyrrolidin-3-yl)-4-(trifluoromethoxy)butan-2-yl)amino)-3-(tetrahydro-2H-pyran-4-yl)propan-2-yl)oxalamide], 0.2 to 0.5 µM; in that of `CC(C)(C)NC(=O)C(=O)N1CC2(CCC2)CC1C(=O)N[C@@H](C[C@@H]1CCNC1=O)C(=O)COC(F)(F)F` (stereo partly drawn) [Compound 511, 6-(2-(tert-butylamino)-2-oxoacetyl)-N-((S)-3-oxo-1-((S)-2-oxopyrrolidin-3-yl)-4-(trifluoromethoxy)butan-2-yl)-6-azaspiro[3.4]-octane-7-carboxamide], 0.05 to 0.2 µM. The same measure, in the same setting: under `O=C(N[C@@H](CC1CC1)C(=O)N[C@@H](C[C@@H]1CCNC1=O)C(=O)COC(F)(F)F)C(=O)NC1(C(F)(F)F)CC1` [Compound 512, N1-((S)-3-cyclopropyl-1-oxo-1-(((S)-3-oxo-1-((S)-2-oxopyrrolidin-3-yl)-4-(trifluoromethoxy)butan-2-yl)amino)propan-2-yl)-N2-(1-(trifluoromethyl)-cyclopropyl)-oxalamide] stands 0.05 to 0.2 µM. Still for that read-out and setting: in the case of `Cc1ccccc1NC(=O)C(=O)N1C[C@@H]2CCC[C@@H]2[C@H]1C(=O)N[C@@H](C[C@@H]1CCNC1=O)C(=O)COC(F)(F)F` [Compound 513, (1S,3aR,6aS)-N-((S)-3-oxo-1-((S)-2-oxopyrrolidin-3-yl)-4-(trifluoromethoxy)butan-2-yl)-2-(2-oxo-2-(o-tolylamino)acetyl)-octahydrocyclo-penta[c]pyrrole-1-carboxamide] it was < 0.05 µM. In the case of `CC(C)(C)NC(=O)C(=O)N1CC2(COC2)C[C@@H]1C(=O)N[C@@H](C[C@@H]1CCNC1=O)C(=O)COC(F)(F)F` [Compound 514, (R)-6-(2-(tert-butylamino)-2-oxoacetyl)-N-((S)-3-oxo-1-((S)-2-oxopyrrolidin-3-yl)-4-(trifluoromethoxy)butan-2-yl)-2-oxa-6-azaspiro[3.4]octane-7-carboxamide], the EC50 fell in the range of 0.5 to 1 µM. As for `CC1(C)[C@@H]2[C@@H](C(=O)N[C@@H](C[C@@H]3CCNC3=O)C(=O)COC(F)(F)F)N(C(=O)C(=O)NCC(F)F)C[C@@H]21` [Compound 516, (1R,2S,5S)-3-(2-((2,2-difluoroethyl)amino)-2-oxoacetyl)-6,6-dimethyl-N-((S)-3-oxo-1-((S)-2-oxopyrrolidin-3-yl)-4-(trifluoromethoxy)butan-2-yl)-3-azabicyclo-[3.1.0]hexane-2-carboxamide], the EC50 lay within 0.05 to 0.2 µM.

`O=C(NCC(F)(F)F)C(=O)N[C@@H](CC1CC1)C(=O)N[C@@H](C[C@@H]1CCNC1=O)C(=O)COC(F)(F)F` [Compound 517, N1-((S)-3-cyclopropyl-1-oxo-1-(((S)-3-oxo-1-((S)-2-oxopyrrolidin-3-yl)-4-(trifluoromethoxy)butan-2-yl)amino)propan-2-yl)-N2-(2,2,2-trifluoroethyl)oxalamide]: the EC50 is < 0.05 µM. On the same count and under the same terms, under `CC(C)(C)NC(=O)C(=O)N1C[C@@]2(C[C@H]1C(=O)N[C@@H](C[C@@H]1CCNC1=O)C(=O)COC(F)(F)F)CC2(F)F` [Compound 518, (3R,6S)-5-(2-(tert-butylamino)-2-oxoacetyl)-1,1-difluoro-N-((S)-3-oxo-1-((S)-2-oxopyrrolidin-3-yl)-4-(trifluoromethoxy)butan-2-yl)-5-azaspiro[2.4]-heptane-6-carboxamide] stands 0.05 to 0.2 µM; under `O=C(NCC(F)F)C(=O)N1C[C@@H]2CCC[C@@H]2[C@H]1C(=O)N[C@@H](C[C@@H]1CCNC1=O)C(=O)COC(F)(F)F` [Compound 519, (1S,3aR,6aS)-2-(2-((2,2-difluoroethyl)amino)-2-oxoacetyl)-N-((S)-3-oxo-1-((S)-2-oxopyrrolidin-3-yl)-4-(trifluoromethoxy)butan-2-yl)octahydrocyclo-penta[c]pyrrole-1-carboxamide], 0.2 to 0.5 µM.

`CC(C)(C)NC(=O)C(=O)N1C[C@@H]2CC(F)(F)C[C@@H]2[C@H]1C(=O)N[C@@H](C[C@@H]1CCNC1=O)C(=O)COC(F)(F)F` [Compound 520, (1S,3aR,6aS)-2-(2-(tert-butylamino)-2-oxoacetyl)-5,5-difluoro-N-((S)-3-oxo-1-((S)-2-oxopyrrolidin-3-yl)-4-(trifluoromethoxy)butan-2-yl)octahydrocyclo-penta[c]pyrrole-1-carboxamide]: the half-maximal effective concentration (EC50) lay in the range of 0.05 to 0.2 µM.

Consider `CC(C)(C)NC(=O)C(=O)N1[C@@H]2C[C@@H]2C[C@H]1C(=O)N[C@@H](C[C@@H]1CCNC1=O)C(=O)COC(F)(F)F` [Compound 521], for which the EC50 lay within 0.2 to 0.5 µM.

`CC(C)(C)NC(=O)C(=O)N1CC2(CCOCC2)CC1C(=O)N[C@@H](C[C@@H]1CCNC1=O)C(=O)COC(F)(F)F` (stereo partly drawn) [Compound 522, 2-(2-(tert-butylamino) -2-oxoacetyl)-N-((S)-3-oxo-1-((S)-2-oxopyrrolidin-3-yl)-4-(trifluoromethoxy)butan-2-yl)-8-oxa-2-azaspiro[4.5]decane-3-carboxamide]: the EC50 fell in the range of 0.5 to 1 µM.

The values are drawn from patent publication US11708348B2, “Protease inhibitors for treatment of coronavirus infections” (The Scripps Research Institute, priority 2021, dated 2023).
